Results on 19 compounds are retold here after patent US12162867B2, “Inhibitors of RNA helicase DHX9 and uses thereof” (ACCENT THERAPEUTICS, INC., priority 2022, dated 2024).

Experiment [1] deals with T1, Human recombinant DHX9 protein (Homo sapiens, UniProt Q08211).
T1 construct: purchased Viva
As to the kind of experiment: DHX9 ATPase assay (ADP-Glo). The experiment is classed as biochemical. Conditions: for IC50: read-out: DHX9 Biochemical Inflection Point. A general note: ADP-Glo turns the ADP formed in a reaction into a luminescent signal.

For experiment [2], the system named is circBRIP1 in HCT116 cells. As to the kind of experiment: DHX9 circBRIP1 cellular target engagement SYBR Green assay (qPCR). The experiment is classed as cell-based. Conditions: Homo sapiens, HCT-116, circBRIP1, HCT116 cells; SyBr assay (marked ^+); read-out: DHX9 Cellular Target Engagement EC50. On the technique in general: Real-time PCR tracks product formation cycle by cycle.

The test system of the next experiment is LS411N cells. Kind of experiment: DHX9 cellular proliferation assay (CellTiter-Glo), LS411N (CRC-MSI). To be noted: LS411N, performed at Pharmaron, read-out: LS411N (CRC-MSI-H) Antiproliferative IC50. In kind it is cell-based.
For another experiment, the system named is NCI-H747 cells. Kind of experiment: DHX9 cellular proliferation assay (CellTiter-Glo), NCI-H747 (CRC-MSS). In kind it is cell-based. To be noted: performed at Pharmaron, read-out: H747 (CRC-MSS) Antiproliferative IC50. (Cellular ATP, detected with luciferase, serves as a proxy for viable cell number.)
In experiment [3] the test system is circBRIP1 in HCT116 cells. Kind of experiment: DHX9 circBRIP1 cellular target engagement TaqMan Multiplex assay (qPCR). To be noted: * Taqman assay was used, read-out: DHX9 Cellular Target Engagement EC50. In kind it is cell-based.
The mark [4] stands for this setting: inflection point of dose-response curve.
Where [5] appears, read: Homo sapiens, NCI-H747, NCI-H747.
Setting [6] is: Homo sapiens, HCT-116, circBRIP1, HCT116 cells.

Read-outs that look alike come from different tables or passages of the source.

T1 sequence (Q08211 whole entry): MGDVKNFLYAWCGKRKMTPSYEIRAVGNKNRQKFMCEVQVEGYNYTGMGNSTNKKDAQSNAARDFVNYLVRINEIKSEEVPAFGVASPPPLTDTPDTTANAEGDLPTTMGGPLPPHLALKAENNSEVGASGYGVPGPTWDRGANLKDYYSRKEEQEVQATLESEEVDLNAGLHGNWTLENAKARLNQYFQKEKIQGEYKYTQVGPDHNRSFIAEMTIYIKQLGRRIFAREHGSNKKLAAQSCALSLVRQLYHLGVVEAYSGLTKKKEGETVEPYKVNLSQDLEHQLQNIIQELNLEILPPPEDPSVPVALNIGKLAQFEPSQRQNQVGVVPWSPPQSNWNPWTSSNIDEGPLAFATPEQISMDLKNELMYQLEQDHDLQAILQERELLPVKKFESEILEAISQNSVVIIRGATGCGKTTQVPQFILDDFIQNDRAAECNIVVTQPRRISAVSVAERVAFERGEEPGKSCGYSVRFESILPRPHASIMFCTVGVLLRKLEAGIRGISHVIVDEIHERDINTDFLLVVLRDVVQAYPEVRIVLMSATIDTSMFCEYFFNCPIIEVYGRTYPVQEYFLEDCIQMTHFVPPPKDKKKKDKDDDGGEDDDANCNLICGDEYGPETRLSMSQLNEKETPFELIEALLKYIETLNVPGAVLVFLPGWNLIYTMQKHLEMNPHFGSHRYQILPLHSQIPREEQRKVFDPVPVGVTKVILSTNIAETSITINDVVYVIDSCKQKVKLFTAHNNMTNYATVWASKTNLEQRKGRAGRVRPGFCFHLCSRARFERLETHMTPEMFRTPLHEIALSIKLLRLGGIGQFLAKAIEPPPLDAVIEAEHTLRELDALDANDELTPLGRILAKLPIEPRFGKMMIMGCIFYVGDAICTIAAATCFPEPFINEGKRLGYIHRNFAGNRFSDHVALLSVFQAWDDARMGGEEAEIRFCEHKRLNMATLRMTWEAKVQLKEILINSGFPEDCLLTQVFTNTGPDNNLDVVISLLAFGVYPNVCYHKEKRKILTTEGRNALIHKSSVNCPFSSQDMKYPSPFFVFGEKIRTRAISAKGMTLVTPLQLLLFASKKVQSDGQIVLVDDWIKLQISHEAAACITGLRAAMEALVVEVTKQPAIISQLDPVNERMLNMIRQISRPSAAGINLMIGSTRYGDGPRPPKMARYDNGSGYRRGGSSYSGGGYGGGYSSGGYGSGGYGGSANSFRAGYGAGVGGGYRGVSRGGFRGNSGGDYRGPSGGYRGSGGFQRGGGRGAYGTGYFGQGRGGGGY

In the case of `CS(=O)(=O)Nc1cc(Cl)cc(NC(=O)c2cnn([C@@H]3CCCC[C@H]3O)c2)c1` (single isomer, unassigned) [Example 150, N-(3-chloro-5-(methylsulfonamido)phenyl)-1-(trans-2-hydroxycyclohexyl)-1H-pyrazole-4-carboxamide], the IC50 in experiment [1] (setting [4]) turned out to be 147 nM. For the same compound, in experiment [2], the EC50 (as a rule, the concentration at which the effect is half-maximal) was determined as 6560 nM.
As to `CS(=O)(=O)Nc1cc(Cl)cc(NC(=O)c2cnn([C@H]3CCC[C@H]3Oc3ccccc3)c2)c1` (single isomer, unassigned) [Example 259], in experiment [1] (setting [4]), the IC50 came to 1940 nM. The EC50 in experiment [2] is more than 10000 nM.
In the same order, the values of `CS(=O)(=O)Nc1cc(Cl)cc(NC(=O)c2cnn([C@H]3CCC[C@H]3c3ccccc3)c2)c1` (single isomer, unassigned) [Example 260] are 715 nM and more than 10000 nM.
`Cc1sc(C(=O)Nc2cc(Cl)cc(NS(C)(=O)=O)c2)cc1-c1ncccc1OC(C)c1cc(F)cc(F)c1` (single isomer, unassigned) [Example 632]: in experiment [1], the “DHX9 Biochemical Max Inhibition (%)” value is 71.5%. The IC50 in the experiment on LS411N cells (Homo sapiens, LS-411N) is 96.8 nM; with NCI-H747 cells (setting [5]) it was more than 10000 nM. Further, the EC50 in experiment [3] (setting [6]) was determined as 112 nM.
With `Cc1sc(C(=O)Nc2cc(Cl)cc(NS(C)(=O)=O)c2)cc1-c1ncccc1-c1cncc(F)c1` [Example 229], the “DHX9 Biochemical Max Inhibition” value in experiment [1] is 72.5%. For the same compound, the IC50 in experiment [1] (setting [4]) is 9.6 nM; with LS411N cells (Homo sapiens, LS-411N, CRC-MSI-H), 51 nM; with NCI-H747 cells (Homo sapiens, NCI-H747, NCI-H747, CRC-MSS), more than 10000 nM. The concentration giving a half-maximal response (EC50) in experiment [2] is 78.1 nM.
For the compound `CC(C)(C)OC(=O)NC1CC2(C1)CC(n1cc(C(=O)Nc3cc(Cl)cc(NS(C)(=O)=O)c3)cn1)C2` (centres unmarked) [Example 318], the IC50 in experiment [1] (setting [4]) amounted to 207 nM. Besides, the half-maximal effective concentration (EC50) in experiment [2] was found to be 4900 nM.
`Cc1sc(C(=O)Nc2cc(Cl)cc(NS(C)(=O)=O)c2)cc1-c1ncc(N2CCC3(C2)CC3(F)F)cn1` (centres unmarked) [Example 491]: the “DHX9 Biochemical Max Inhibition (%)” value in experiment [1] worked out at 72%. In addition, the IC50 stood at 59.1 nM with LS411N cells (Homo sapiens, LS-411N) and 2160 nM in the experiment with NCI-H747 cells (setting [5]). Moreover, in experiment [3] (setting [6]), the EC50 is 20.7 nM.
Take `CCS(=O)(=O)Nc1cc(Cl)cc(NC(=O)c2cc(-c3ncc(N4CC(F)(F)C4)cc3F)n(C)c2)c1` [Example 517]: the “DHX9 Biochemical Max Inhibition (%)” value in experiment [1] is 54.1%. The IC50 with LS411N cells turned out to be 135 nM; with NCI-H747 cells (NCI-H747), 2220 nM. Moreover, the EC50 in experiment [3] (circBRIP1, HCT116 cells) was 16.8 nM.
Regarding `CN1CC(Oc2ccc(-c3cc(C(=O)Nc4cc(Cl)cc(NS(C)(=O)=O)c4)cn3C)nc2)C1` [Example 612, N-(3-chloro-5-methanesulfonamidophenyl)-1-methyl-5-{5-[(1-methylazetidin-3-yl)oxy]pyridin-2-yl}pyrrole-3-carboxamide], in experiment [1], the “DHX9 Biochemical Max Inhibition (%)” value turned out to be 70%. Further, the IC50 was 10.1 nM in experiment [1]; 281 nM with LS411N cells (Homo sapiens, LS-411N); more than 10000 nM in the experiment on NCI-H747 cells (setting [5]). In experiment [3] (setting [6]), the EC50 is 21.2 nM.
As for `Cc1sc(C(=O)Nc2cc(Cl)cc(NS(C)(=O)=O)c2)cc1-c1ncc(N2CC(F)(F)C2)cc1OCC(F)(F)F` [Example 707], the IC50 with LS411N cells (Homo sapiens, LS-411N) stood at 68.5 nM; in the experiment on NCI-H747 cells (setting [5]), 5360 nM. Also, the EC50 in experiment [3] (setting [6]) came out at 25.4 nM.
On the same counts, the results for `Cc1cc(C(=O)Nc2cc(Cl)cc(NS(C)(=O)=O)c2)cn1-c1ncc(N2CC(F)(F)C2)cc1OCC(F)(F)F` [Example 708] are 140 nM, 6460 nM and 92.6 nM.
In the same order, the values of `Cc1sc(C(=O)Nc2cc(Cl)cc(NS(C)(=O)=O)c2)cc1-c1ccc(C2CN(CC(F)(F)F)C2)cn1` [Example 710] are 48.1 nM, 5400 nM and 10.7 nM.
As for `Cc1sc(C(=O)Nc2cc(Cl)cc(NS(C)(=O)=O)c2)cc1-c1ncc(N2CC(F)(F)C2)cc1C#N` [Example 715], the IC50 in the experiment on LS411N cells (Homo sapiens, LS-411N) was found to be 69.9 nM; in the experiment on NCI-H747 cells (setting [5]), 9760 nM. The EC50 in experiment [3] (setting [6]) was 14.4 nM.
For the compound `Cc1sc(C(=O)Nc2cc(Cl)cc(NS(C)(=O)=O)c2)cc1-c1ncc(N(C)S(C)(=O)=O)cn1` [Example 720], the IC50 was found to be 452 nM in the experiment on LS411N cells (Homo sapiens, LS-411N) and 7900 nM in the experiment with NCI-H747 cells (setting [5]). For the same compound, the EC50 in experiment [3] (setting [6]) stood at 54.9 nM.
Take `Cn1cc(C(=O)Nc2cc(Cl)cc(NS(C)(=O)=O)c2)cc1-c1ncc(F)cc1CCc1cncc(F)c1` [Example 728]: the “DHX9 Biochemical Max Inhibition (%)” value in experiment [1] amounted to 62.5%. For the same compound, in experiment [3] (circBRIP1, HCT116 cells), the EC50 stood at 1350 nM.
For `Cc1sc(C(=O)Nc2cc(Cl)cc(NS(C)(=O)=O)c2)cc1-c1ncc(F)cc1OCc1cnco1` [Example 732], the IC50 with LS411N cells (Homo sapiens, LS-411N) was 34.1 nM; in the experiment on NCI-H747 cells (setting [5]), 4570 nM. In experiment [3] (setting [6]), the half-maximal effective concentration (EC50) is 26.1 nM.
Consider `Cn1cc(C(=O)Nc2cc(Cl)cc(NS(C)(=O)=O)c2)cc1-c1ncc(N2CC(F)(F)C2)cc1OCc1cnco1` [Example 733], for which the IC50 with LS411N cells (Homo sapiens, LS-411N) was 206 nM; in the experiment on NCI-H747 cells (setting [5]) it was more than 10000 nM. Moreover, the EC50 in experiment [3] (setting [6]) is 88.3 nM.
In the same order, the values of `Cc1ncc(OCc2cc(F)cc(F)c2)c(-c2cc(C(=O)Nc3cc(Cl)cc(NS(C)(=O)=O)c3)cn2C)n1` [Example 734] are 10.6 nM, 6170 nM and 3 nM.
As to `CS(=O)(=O)Nc1cc(Cl)cc(NC(=O)c2cc(-c3ncc(F)cc3OCc3cncnc3)n(CC(F)(F)F)c2)c1` [Example 735], the IC50 in the experiment with LS411N cells (Homo sapiens, LS-411N) was 306 nM; in the experiment with NCI-H747 cells (setting [5]) it was more than 10000 nM. The half-maximal effective concentration (EC50) in experiment [3] (setting [6]) stood at 77.2 nM.
